Laboratory results published in paper PMC6199744, “Development of Chemical Proteomics for the Folateome and Analysis of the Kinetoplastid Folateome” (ACS Infectious Diseases, 2018).
Read-outs that look alike come from different tables or passages of the source.

Experiments:
Assay type in all cases: binding
[1] = molecular target: T1, HeLa cell extract proteins (Homo sapiens, UniProt O00303)
T1 construct: endogenous in cells; host or cells: HeLa cell extract

[2] = molecular target: T2, HeLa cell extract proteins (Homo sapiens, UniProt O75340)
T2 construct: endogenous in cells; host or cells: HeLa cell extract

[3] = molecular target: T3, HeLa cell extract proteins (Homo sapiens, UniProt P35573)
T3 construct: endogenous in cells; host or cells: HeLa cell extract

[4] = molecular target: T4, HeLa cell extract proteins (Homo sapiens, UniProt P51659)
T4 construct: endogenous in cells; host or cells: HeLa cell extract
T4 sequence (P51659 1-736): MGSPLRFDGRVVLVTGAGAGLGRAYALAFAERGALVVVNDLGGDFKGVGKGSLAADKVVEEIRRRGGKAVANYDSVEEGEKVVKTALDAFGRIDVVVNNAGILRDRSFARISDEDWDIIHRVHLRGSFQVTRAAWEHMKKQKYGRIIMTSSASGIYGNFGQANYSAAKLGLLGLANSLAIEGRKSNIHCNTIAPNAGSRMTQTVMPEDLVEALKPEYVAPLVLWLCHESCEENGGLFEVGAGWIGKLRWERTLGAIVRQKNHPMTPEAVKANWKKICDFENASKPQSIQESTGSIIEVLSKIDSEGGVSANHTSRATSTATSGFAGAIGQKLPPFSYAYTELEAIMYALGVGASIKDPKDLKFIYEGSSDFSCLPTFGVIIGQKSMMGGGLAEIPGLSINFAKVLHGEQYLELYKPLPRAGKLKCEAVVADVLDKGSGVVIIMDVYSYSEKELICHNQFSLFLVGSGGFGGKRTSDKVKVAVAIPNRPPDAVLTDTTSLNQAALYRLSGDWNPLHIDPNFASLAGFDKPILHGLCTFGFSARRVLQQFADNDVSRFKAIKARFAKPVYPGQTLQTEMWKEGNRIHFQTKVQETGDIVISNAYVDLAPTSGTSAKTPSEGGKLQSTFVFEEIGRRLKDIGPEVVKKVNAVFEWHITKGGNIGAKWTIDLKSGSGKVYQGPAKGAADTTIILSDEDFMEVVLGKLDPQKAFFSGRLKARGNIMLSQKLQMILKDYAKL

[5] = molecular target: T5, HeLa cell extract proteins (Homo sapiens, UniProt Q96DG6)
T5 construct: endogenous in cells; host or cells: HeLa cell extract
T5 sequence (Q96DG6 1-245): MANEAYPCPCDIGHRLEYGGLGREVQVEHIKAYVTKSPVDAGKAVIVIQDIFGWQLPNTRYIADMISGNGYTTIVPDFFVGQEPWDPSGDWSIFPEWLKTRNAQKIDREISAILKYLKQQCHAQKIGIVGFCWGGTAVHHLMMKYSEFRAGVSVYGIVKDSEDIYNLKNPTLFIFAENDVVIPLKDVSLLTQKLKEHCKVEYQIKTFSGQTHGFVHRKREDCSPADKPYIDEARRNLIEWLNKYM

[6] = molecular target: T6, HeLa cell extract proteins (Homo sapiens, UniProt Q9ULK4)
T6 construct: endogenous in cells; host or cells: HeLa cell extract
T6 sequence (Q9ULK4 1-1368): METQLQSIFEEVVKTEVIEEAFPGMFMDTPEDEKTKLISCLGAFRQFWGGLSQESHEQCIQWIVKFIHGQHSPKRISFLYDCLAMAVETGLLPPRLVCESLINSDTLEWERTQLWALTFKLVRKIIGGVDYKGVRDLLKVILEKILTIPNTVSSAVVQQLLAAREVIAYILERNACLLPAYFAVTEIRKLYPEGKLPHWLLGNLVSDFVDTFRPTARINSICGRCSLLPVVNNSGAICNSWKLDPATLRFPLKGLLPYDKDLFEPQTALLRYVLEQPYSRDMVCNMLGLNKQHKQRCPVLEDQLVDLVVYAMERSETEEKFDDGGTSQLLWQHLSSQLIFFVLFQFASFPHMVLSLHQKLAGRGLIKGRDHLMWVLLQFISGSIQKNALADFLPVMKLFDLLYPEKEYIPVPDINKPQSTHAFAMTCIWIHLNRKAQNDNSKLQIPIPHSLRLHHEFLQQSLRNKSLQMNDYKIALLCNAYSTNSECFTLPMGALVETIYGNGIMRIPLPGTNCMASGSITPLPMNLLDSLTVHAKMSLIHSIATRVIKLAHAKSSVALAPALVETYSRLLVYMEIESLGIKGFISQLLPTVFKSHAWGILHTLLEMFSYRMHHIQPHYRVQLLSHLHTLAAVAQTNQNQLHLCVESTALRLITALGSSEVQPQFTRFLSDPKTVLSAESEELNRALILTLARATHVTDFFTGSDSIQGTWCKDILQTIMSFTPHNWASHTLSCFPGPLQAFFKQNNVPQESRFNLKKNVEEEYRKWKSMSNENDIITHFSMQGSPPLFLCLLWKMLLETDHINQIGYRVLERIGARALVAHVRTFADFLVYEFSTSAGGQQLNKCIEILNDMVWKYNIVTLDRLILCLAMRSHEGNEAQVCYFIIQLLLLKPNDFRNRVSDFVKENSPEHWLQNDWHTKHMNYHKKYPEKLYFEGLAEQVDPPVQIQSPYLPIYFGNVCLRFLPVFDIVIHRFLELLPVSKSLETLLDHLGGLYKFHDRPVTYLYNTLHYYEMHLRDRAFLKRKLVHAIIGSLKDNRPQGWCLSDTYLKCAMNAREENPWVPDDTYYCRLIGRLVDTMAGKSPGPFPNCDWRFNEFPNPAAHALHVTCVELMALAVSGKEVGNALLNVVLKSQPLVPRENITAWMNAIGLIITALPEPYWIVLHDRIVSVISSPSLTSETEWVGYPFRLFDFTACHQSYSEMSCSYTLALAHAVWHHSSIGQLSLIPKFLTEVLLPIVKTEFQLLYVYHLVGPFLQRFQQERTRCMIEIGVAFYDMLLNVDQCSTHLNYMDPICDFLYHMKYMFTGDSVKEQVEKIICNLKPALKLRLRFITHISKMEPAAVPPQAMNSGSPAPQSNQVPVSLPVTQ

[7] = HeLa, protein PDCD6 (PROGRAMMED CELL DEATH PROTEIN 6)
[8] = HeLa, protein AGL (PUTATIVE UNCHA[…] AGL (FRAGMENT))
[9] = HeLa, protein HSD17B4 (CDNA FLJ55431, HIGHLY SIMILAR TO PEROXISOMAL MULTIFUNCTIONAL ENZYME TYPE 2)

T2 sequence (O75340 whole entry): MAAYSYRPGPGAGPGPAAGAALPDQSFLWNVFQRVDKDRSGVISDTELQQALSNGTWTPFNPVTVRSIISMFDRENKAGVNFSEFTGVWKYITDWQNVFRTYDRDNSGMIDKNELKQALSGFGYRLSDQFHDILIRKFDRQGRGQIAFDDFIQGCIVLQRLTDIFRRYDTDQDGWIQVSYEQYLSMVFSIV
T3 sequence (P35573 whole entry): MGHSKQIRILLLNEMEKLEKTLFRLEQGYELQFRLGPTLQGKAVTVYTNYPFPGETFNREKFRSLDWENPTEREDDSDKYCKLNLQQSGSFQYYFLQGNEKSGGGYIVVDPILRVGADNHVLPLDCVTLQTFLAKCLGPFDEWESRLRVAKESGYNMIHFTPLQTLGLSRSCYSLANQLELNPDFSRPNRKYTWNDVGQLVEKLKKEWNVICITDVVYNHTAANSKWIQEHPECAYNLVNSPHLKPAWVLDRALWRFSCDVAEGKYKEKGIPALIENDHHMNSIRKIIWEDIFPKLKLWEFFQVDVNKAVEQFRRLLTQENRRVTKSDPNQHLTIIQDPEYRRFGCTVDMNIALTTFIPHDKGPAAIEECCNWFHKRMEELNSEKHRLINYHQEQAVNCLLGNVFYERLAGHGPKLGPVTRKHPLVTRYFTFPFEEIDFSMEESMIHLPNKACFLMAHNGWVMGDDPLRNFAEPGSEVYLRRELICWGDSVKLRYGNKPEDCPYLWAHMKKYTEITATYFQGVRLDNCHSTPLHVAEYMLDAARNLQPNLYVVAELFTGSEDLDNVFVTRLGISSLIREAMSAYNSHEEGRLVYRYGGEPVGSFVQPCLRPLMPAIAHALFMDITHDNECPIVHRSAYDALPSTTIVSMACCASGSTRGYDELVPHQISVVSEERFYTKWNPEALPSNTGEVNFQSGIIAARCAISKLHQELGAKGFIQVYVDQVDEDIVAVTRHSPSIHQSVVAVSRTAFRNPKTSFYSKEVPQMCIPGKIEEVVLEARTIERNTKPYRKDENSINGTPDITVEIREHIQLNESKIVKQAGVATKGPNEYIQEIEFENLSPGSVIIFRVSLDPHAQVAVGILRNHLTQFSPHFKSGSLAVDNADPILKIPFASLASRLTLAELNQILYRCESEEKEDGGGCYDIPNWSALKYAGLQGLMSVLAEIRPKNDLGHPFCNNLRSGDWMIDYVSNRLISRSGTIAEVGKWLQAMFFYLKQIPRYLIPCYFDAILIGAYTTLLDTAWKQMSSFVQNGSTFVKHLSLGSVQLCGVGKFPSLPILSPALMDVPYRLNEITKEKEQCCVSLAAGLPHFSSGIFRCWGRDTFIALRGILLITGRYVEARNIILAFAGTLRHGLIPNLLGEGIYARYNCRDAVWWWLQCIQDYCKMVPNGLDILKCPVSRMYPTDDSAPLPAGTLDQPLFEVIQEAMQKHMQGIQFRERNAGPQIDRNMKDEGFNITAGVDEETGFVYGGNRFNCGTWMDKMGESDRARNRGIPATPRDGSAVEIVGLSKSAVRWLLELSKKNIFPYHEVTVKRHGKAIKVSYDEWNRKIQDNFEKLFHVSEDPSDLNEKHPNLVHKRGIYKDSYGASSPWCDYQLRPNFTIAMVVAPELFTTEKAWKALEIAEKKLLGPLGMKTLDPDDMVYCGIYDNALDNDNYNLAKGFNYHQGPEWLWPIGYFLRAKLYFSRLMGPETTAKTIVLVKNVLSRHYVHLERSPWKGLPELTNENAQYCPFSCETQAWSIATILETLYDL
T1 sequence (O00303 whole entry): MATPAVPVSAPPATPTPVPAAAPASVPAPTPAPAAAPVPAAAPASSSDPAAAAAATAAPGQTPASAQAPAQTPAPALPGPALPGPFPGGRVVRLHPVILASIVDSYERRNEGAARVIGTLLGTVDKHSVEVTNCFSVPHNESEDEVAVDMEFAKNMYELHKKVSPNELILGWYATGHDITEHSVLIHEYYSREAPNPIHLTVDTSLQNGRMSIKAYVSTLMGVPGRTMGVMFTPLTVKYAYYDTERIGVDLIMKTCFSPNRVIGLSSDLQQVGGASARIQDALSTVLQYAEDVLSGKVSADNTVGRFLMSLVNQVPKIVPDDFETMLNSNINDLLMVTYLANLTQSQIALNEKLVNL

| SMILES | fold changes relative to vehicle control ([1]; protein EIF3F, HeLa) | fold changes relative to vehicle control [2, 7] | fold changes relative to vehicle control [3, 8] | fold changes relative to vehicle control [4, 9] | fold changes relative to vehicle control ([5]; HeLa, protein CMBL) | fold changes relative to vehicle control ([6]; HeLa, protein MED23) | fold changes relative to vehicle control ([1]; HeLa, protein EIF3F) | fold changes relative to vehicle control ([2]; HeLa, protein PDCD6) | fold changes relative to vehicle control ([3]; HeLa, protein AGL) | fold changes relative to vehicle control ([4]; protein HSD17B4, HeLa) | fold changes relative to vehicle control ([5]; protein CMBL, HeLa) | fold changes relative to vehicle control ([6]; captured protein MED23, HeLa) | further results |
| --- | --- | --- | --- | --- | --- | --- | --- | --- | --- | --- | --- | --- | --- |
| Nc1nc2c(c(=O)[nH]1)N(C=O)C(CNc1ccc(C(=O)N[C@@H](CCC(=O)O)C(=O)O)cc1)CN2 (stereo partly drawn) [LEU, leucovorin] | 0.95 | 1.14 | 1.19 | 1.25 | 1.04 | 0.91 |  |  |  |  |  |  |  |
| Nc1nc2[nH]cc(CCc3ccc(C(=O)N[C@@H](CCC(=O)O)C(=O)O)cc3)c2c(=O)[nH]1 [PTX, pemetrexed] |  |  |  |  |  |  |  |  |  |  |  |  | fold changes relative to vehicle control [1]: 0.92; fold changes relative to vehicle control [2]: 1.06; fold changes relative to vehicle control [3]: 1.1; fold changes relative to vehicle control [4]: 1.15; fold changes relative to vehicle control [5]: 0.97; fold changes relative to vehicle control [6]: 0.95 |
| CCCCCCOc1ccc(Cc2cnc(N)nc2N)cc1 [compound 1] |  |  |  |  |  |  | 0.93 | 1.03 | 1.05 | 1.07 | 1.08 | 0.94 |  |
| CCCCCCOc1cccc(Cc2cnc(N)nc2N)c1 [compound 2] |  |  |  |  |  |  | 1.24 | 0.92 | 1.08 | 1.22 | 1.38 | 1.04 |  |
| Nc1nc2cccc(-c3ccccc3)c2n1Cc1ccc(Cl)c(Cl)c1 [compound 3] |  |  |  |  |  |  | 1.05 | 1.07 | 1.13 | 1.14 | 1.17 | 1.1 |  |
| NCCOCCOCC(=O)Nc1nc2ncc(CNc3ccc(C(=O)NC(CCC(=O)O)C(=O)O)cc3)nc2c(=O)[nH]1 (stereo not drawn) [compound 6] | 0.96 | 0.98 | 1.09 | 1.02 | 1.03 | 0.93 |  |  |  |  |  |  |  |
| NCCCNc1ccc(C(=O)NC(CCC(=O)O)C(=O)O)cc1 (stereo not drawn) [compound 7] | 1.01 | 1.05 | 1.17 | 1.07 | 1.25 | 0.97 |  |  |  |  |  |  |  |
